Assay results taken from EP2861555B1, “PROCESS FOR DEPIGMENTING KERATIN MATERIALS USING NOVEL RESORCINOL-BASED COMPOUNDS” (L'Oréal, priority 2012, dated 2013).

What was measured:
[1] = tested on: coculture of keratinocytes and melanocytes; experiment: Cytotoxicity on keratinocyte/melanocyte coculture, estimated by incorporation of leucine; assay type: cell-based
[2] = tested on: coculture of keratinocytes and melanocytes; experiment: Inhibitory activity on melanin synthesis (constitutive melanogenesis), ratio of thiouracil to leucine incorporation; assay type: cell-based; conditions: concentration for which 50% of the synthesis of the melanin is inhibited; thiouracil/leucine incorporation ratio relative to 100% for the control
Procedure: This test is carried out on a coculture of keratinocytes and melanocytes.
For the test compound, the following were determined: • the cytotoxicity, by estimating the incorporation of leucine, • the inhibitory activity on melanin synthesis, by estimating the ratio of the incorporation of thiouracil to the incorporation of leucine, relative to 100% for the control (the control corresponds to the test performed without test compound). The IC50 (concentration for which 50% of the synthesis of the melanin is inhibited) values were determined.
The test was also carried out with arbutin and kojic acid, which are known depigmenting compounds.

[3] = tested on: pigmented reconstructed epidermis; experiment: Test on pigmented reconstructed epidermis samples, melanin quantified by image analysis; assay type: cell-based, human
Procedure: Compositions comprising 300 µM of compound 1 in DMSO were applied to samples of pigmented reconstructed epidermis (cf. EP 1 878 790). The control is DMSO. The melanin was quantified by image analysis on histological slices after staining with Fontana Masson dye. Each sample of coloured epidermis is photographed over its entire length using a camera connected to a microscope. The melanin is thresholded and the number of melanin pixels is measured in each field using automated image analysis software. A non-parametric statistical test is performed in order to determine the significance of the measurements (Mann-Whitney test).
The pigmented reconstructed epidermis standard study model was published by: Regnier M, Duval C, Galey JB, Philippe M, Lagrange A, Tuloup R, Schmidt R, Cellular and Molecular Biology, 1999, 45, 7, 969-980: "Keratinocyte-Melanocyte co-cultures and pigmented reconstructed human epidermis: models to study modulation of melanogenesis".

SMILES	Cytotoxicity on coculture [1]	IC50 [2] [µM]	depigmenting activity ([3]; 300 µM, pValue < 0.05 (Ttest 0.0006 in table), Mann-Whitney test)	Percentage (normalized) ([3]; topical application 300 uM in DMSO, melanin area normalized to DMSO 1/1000 control = 100)	Average area ([3]; topical application 300 uM in DMSO, melanin pixels by image analysis after Fontana Masson staining, DMSO 1/1000 control 368.5)
CCOC(=O)C(Cc1ccccc1)NC(=O)C(CCO)Cc1ccc(O)cc1O (stereo not shown)	Non-cytotoxic	0.15			
CCOC(=O)C(CC(C)C)NC(=O)C(CCO)Cc1ccc(O)cc1O (stereo not shown)	Non-cytotoxic	100			
CCCCC(CC)CNC(=O)C(CCO)Cc1ccc(O)cc1O (stereo not shown)	50 µM	25.2			
OC[C@H]1O[C@@H](Oc2ccc(O)cc2)[C@H](O)[C@@H](O)[C@@H]1O [Arbutin, reference compound]	Non-cytotoxic	> 500			
CCOC(=O)[C@H](Cc1ccccc1)NC(=O)C(CCO)Cc1ccc(O)cc1O (stereo partly shown) [Compound 1, ethyl N-[2-(2,4-dihydroxybenzyl)-4-hydroxybutanoyl]phenylalaninate]			Significant depigmenting activity	71.7	264.2
O=c1cc(CO)occ1O [Kojic acid, reference compound]	100 µM	> 500			
